Results taken from ChEMBL document CHEMBL1201862, “PubChem BioAssay data set” (2004).
The source made the active and inactive calls.

Assays:
[1] = target: T1, Neuropeptides B/W receptor type 1 (Homo sapiens, UniProt P48145); assay: Fluorescence-based dose response cell-based high throughput screening assay to identify antagonists of the G-protein coupled receptor 7 (GPR7). [Related pubchem assays: 1952 (Screening assay (GPR7 antagonists).), 1880 (Summary AID.)]; format: functional
T1 sequence (P48145 whole entry): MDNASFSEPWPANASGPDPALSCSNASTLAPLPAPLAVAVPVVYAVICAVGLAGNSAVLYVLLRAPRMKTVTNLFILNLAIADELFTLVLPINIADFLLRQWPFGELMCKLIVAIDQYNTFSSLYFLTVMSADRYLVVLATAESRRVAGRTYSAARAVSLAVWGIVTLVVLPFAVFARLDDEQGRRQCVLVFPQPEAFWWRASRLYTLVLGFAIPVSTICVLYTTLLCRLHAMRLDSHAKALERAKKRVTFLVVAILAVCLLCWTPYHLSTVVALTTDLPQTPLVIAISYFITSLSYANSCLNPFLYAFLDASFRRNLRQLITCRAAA

[2] = target: Melanin-concentrating hormone receptor 1 (Homo sapiens, UniProt Q99705); assay: Fluorescence-based counterscreen for antagonists of the G-protein coupled receptor 7 (GPR7): cell-based high throughput dose response assay to identify antagonists of the melanin-concentrating hormone receptor 1 (MCHR1).; format: functional
[3] = target: Neurotensin receptor type 1 (Homo sapiens, UniProt P30989); format: functional;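 note: Image-based confirmatory dose-response assay measuring agonist activity at NTR1; NTR1-expressing U2OS osteosarcoma cells imaged for beta-arrestin GFP spot formation; agonist potency where compounds increase beta-arrestin recruitment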
[4] = target: Peroxisome proliferator-activated receptor gamma/Nuclear receptor corepressor 2 (Homo sapiens, UniProt P37231+Q9Y618); format: functional
[5] = target: Photoreceptor-specific nuclear receptor (Homo sapiens, UniProt Q9Y5X4); format: functional;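 note: potency for compounds that break the NR2E3 corepressor complex and count as activators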
[6] = target: T2, Zinc finger protein mex-5 (Caenorhabditis elegans, UniProt Q9XUB2); assay: MEX-5/TCR-2 RNA interaction inhibitors, dose response, biochemical, C. elegans, fluorescence polarization (AID 1960)
T2 sequence (Q9XUB2 whole entry): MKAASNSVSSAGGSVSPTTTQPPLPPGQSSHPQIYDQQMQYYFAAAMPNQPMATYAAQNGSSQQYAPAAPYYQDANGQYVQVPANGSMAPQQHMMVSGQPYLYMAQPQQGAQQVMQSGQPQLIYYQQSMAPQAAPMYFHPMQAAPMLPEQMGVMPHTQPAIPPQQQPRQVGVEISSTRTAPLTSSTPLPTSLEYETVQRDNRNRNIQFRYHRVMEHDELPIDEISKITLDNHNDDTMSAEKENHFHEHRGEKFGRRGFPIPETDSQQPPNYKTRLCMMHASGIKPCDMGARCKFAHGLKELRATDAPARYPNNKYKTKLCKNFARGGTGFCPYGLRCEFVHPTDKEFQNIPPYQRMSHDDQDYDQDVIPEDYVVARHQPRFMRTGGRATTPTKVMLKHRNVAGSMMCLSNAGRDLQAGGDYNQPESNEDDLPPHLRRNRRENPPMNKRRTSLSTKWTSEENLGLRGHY

[7] = target: T3, RNA-binding protein pos-1 (Caenorhabditis elegans, UniProt G5EF15); assay: inhibitors of POS-1/mex-3 RNA binding, dose response, biochemical, fluorescence polarization (AID 1964);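 note: purified POS-1 fused to maltose binding protein made in E. coli; potency of compounds blocking POS-1 binding to fluorescent RNA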
T3 sequence (G5EF15 whole entry): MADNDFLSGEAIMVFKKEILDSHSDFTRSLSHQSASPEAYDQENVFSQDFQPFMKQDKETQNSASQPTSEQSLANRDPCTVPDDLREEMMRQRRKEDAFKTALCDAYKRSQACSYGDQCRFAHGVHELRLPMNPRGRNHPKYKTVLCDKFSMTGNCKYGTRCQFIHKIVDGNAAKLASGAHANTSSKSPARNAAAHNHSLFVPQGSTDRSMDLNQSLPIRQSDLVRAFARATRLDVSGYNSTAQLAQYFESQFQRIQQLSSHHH

[8] = target: T4, Mucolipin-3 (Homo sapiens, UniProt Q8TDD5); assay: Dose response cell-based high-throughput screening assay for agonists of the transient receptor potential channel ML3 (TRPML3). [Related pubchem assays: 1526, 1424, 1448 ]; format: functional
T4 sequence (Q8TDD5 whole entry): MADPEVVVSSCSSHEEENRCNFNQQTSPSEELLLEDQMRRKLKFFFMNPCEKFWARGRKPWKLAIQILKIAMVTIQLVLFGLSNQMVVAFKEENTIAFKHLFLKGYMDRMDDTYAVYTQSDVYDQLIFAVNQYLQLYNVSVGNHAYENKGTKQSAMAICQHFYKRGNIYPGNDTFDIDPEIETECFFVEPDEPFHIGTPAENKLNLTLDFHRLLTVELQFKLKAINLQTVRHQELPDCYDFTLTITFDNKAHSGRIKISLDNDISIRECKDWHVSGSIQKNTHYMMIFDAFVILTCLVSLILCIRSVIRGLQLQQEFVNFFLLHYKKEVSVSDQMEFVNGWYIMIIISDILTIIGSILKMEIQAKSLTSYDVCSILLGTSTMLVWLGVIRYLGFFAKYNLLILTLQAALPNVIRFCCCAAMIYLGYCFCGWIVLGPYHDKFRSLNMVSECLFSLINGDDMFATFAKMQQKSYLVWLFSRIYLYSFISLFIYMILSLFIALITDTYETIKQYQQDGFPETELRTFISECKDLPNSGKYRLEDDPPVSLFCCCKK

[9] = target: Ion channel NompC (Danio rerio, UniProt Q7T1G6); assay: Fluorescence counterscreen assay for TRPML3 agonists: dose response cell-based high-throughput screening assay to identify agonists of the transient receptor potential channel N1 (TRPN1). [Related pubchem assays: 1526, 1424, 1448 ]; format: functional
[10] = cytotoxicity in HEK-293T cells, dose response, cytotoxicity control for BCR NF-kB inhibitor project, luminescence, B-cell screen hits (AID 489021); format: functional, cell-based;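 note: HEK-293T cells carrying an NF-kB luciferase reporter; cells exposed to compound for about 14 hours before viability readout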
[11] = target: T5, Neuropeptide Y receptor type 1 (Homo sapiens, UniProt P25929); assay: NPY-Y1 receptor antagonist potency, dose response, cell-based (AID 1277); format: functional
T5 sequence (P25929 whole entry): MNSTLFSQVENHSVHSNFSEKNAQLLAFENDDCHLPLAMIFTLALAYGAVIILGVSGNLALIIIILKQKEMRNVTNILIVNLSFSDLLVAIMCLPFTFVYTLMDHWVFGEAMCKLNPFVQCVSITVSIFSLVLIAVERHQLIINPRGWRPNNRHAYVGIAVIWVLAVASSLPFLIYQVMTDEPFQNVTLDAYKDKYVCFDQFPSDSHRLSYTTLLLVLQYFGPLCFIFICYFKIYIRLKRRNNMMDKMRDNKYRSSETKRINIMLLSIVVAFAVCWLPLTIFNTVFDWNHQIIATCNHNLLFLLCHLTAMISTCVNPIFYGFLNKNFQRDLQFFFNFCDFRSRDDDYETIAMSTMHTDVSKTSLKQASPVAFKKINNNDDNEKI

[12] = target: T6, Neuropeptide Y receptor type 2 (Homo sapiens, UniProt P49146); assay: NPY-Y2 antagonist potency, selectivity check, dose response, counter-screen for NPY-Y1 antagonist project, cell-based (AID 1278); format: functional
T6 sequence (P49146 whole entry): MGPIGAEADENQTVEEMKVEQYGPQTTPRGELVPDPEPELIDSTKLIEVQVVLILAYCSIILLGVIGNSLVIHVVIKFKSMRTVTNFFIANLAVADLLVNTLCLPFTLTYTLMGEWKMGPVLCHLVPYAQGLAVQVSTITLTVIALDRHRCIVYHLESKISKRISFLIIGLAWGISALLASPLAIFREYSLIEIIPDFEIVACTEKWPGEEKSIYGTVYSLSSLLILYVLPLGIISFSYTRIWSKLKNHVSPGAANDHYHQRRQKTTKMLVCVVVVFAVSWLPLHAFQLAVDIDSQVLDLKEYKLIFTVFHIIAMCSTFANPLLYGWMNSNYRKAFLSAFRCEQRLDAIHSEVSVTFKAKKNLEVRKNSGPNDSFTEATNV

[13] = tested on: INS1; assay: beta cell apoptosis inhibitors, cytokine rescue, dose response, luminescence, retest (AID 449756); format: functional, cell-based; conditions: Rattus norvegicus;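 note: cell death triggered by IL-1 beta plus TNF-alpha plus IFN-gamma mixture; protective hits raise ATP signal compared with cytokine alone wells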
[14] = target: T5, Neuropeptide Y receptor type 1; format: functional
[15] = CRF-BP/CRF-R2 complex antagonists, dose response, cell-based, uHTS hits, 384-well (AID 651639); format: functional, Homo sapiens; conditions: read-out: IC50_Mean
[16] = target: T7, Corticotropin-releasing factor receptor 2/Corticotropin-releasing factor-binding protein (Homo sapiens, UniProt P24387+Q13324); assay: activators of CRF receptor 2 with binding protein – uHTS hits, confirmation (AID 602473); format: functional; conditions: read-out: EC50_Mean
T7 sequence (Q13324 whole entry): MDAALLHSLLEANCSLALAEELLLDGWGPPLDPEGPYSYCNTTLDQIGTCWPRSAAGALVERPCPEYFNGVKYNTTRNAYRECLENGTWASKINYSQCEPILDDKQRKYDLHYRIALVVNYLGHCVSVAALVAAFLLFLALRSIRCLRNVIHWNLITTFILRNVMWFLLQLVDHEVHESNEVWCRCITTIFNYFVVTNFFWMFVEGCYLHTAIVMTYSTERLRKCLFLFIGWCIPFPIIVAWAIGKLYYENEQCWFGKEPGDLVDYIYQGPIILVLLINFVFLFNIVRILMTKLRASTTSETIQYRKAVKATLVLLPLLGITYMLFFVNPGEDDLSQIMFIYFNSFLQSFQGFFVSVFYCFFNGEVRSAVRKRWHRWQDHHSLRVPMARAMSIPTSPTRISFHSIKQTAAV
T7 sequence (P24387 whole entry): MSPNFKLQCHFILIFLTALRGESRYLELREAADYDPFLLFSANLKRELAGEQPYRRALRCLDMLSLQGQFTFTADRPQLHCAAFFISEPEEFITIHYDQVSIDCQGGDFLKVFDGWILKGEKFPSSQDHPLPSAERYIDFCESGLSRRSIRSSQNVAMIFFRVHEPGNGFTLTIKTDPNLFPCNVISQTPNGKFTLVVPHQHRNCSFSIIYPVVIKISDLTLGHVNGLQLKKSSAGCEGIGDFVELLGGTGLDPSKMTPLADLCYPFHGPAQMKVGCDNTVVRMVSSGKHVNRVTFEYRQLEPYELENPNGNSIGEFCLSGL

[17] = target: T7, Corticotropin-releasing factor receptor 2/Corticotropin-releasing factor-binding protein; assay: Dose Response confirmation of uHTS hits for small molecule antagonists of the CRF-binding protein and CRF-R2 receptor complex.; format: functional; conditions: read-out: IC50_Mean
[18] = target: T6, Neuropeptide Y receptor type 2; format: functional, cell-based
[19] = microbe, parasite or virus in culture; format: functional; conditions: Mycobacterium tuberculosis
[20] = target: T8, Streptokinase A (Streptococcus pyogenes serotype M1, UniProt P10520); assay: S. pyogenes streptokinase expression inhibitors, potency, dose response, plasminogen activation absorbance, OD405 (AID 1914); format: functional, Streptococcus pyogenes M1 GAS;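 note: secreted streptokinase activity via plasminogen activation per viability signal from cell pellet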
T8 sequence (P10520 whole entry): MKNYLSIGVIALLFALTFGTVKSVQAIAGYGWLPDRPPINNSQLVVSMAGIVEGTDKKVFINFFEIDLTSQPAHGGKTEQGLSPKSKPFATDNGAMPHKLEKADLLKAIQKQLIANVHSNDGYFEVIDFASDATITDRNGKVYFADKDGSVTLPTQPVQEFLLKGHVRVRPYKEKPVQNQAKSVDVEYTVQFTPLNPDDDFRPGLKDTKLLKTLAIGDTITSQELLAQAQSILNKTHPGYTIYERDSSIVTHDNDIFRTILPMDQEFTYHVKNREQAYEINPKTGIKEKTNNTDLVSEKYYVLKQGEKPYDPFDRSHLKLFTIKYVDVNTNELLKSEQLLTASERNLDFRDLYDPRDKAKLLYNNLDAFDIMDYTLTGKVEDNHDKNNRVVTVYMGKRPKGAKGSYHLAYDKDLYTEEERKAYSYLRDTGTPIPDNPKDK

[21] = tested on: Streptococcus sp. 'group A'; assay: growth inhibition of control SK(-) GAS strain, dose response, counter-screen for streptokinase expression inhibitor project, luminescence, kanamycin, BacTiterGlo, confirmation (AID 1900); format: functional, organism-based
[22] = tested on: Streptococcus; assay: Group A Streptococcus viability loss, dose response, counter-screen for streptokinase expression inhibitor project, luminescence, BacTiterGlo (AID 1915); format: functional, organism-based;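 note: potency for reduction of bacterial viability or growth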

Peroxisome proliferator-activated receptor gamma/Nuclear receptor corepressor 2, sequence (P37231 whole entry): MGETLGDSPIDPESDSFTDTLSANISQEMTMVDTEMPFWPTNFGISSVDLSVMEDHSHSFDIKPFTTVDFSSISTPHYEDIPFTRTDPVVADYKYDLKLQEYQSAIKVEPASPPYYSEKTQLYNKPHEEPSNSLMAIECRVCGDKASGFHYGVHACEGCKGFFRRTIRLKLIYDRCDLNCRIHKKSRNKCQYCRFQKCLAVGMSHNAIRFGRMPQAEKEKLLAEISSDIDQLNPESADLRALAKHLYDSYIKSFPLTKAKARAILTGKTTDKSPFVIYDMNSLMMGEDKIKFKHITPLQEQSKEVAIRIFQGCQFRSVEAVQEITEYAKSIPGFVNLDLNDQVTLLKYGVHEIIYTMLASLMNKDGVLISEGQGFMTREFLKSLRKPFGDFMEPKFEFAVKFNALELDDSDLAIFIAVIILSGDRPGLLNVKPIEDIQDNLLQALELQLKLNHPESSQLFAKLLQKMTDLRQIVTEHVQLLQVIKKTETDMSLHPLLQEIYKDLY
Peroxisome proliferator-activated receptor gamma/Nuclear receptor corepressor 2, sequence (Q9Y618 whole entry): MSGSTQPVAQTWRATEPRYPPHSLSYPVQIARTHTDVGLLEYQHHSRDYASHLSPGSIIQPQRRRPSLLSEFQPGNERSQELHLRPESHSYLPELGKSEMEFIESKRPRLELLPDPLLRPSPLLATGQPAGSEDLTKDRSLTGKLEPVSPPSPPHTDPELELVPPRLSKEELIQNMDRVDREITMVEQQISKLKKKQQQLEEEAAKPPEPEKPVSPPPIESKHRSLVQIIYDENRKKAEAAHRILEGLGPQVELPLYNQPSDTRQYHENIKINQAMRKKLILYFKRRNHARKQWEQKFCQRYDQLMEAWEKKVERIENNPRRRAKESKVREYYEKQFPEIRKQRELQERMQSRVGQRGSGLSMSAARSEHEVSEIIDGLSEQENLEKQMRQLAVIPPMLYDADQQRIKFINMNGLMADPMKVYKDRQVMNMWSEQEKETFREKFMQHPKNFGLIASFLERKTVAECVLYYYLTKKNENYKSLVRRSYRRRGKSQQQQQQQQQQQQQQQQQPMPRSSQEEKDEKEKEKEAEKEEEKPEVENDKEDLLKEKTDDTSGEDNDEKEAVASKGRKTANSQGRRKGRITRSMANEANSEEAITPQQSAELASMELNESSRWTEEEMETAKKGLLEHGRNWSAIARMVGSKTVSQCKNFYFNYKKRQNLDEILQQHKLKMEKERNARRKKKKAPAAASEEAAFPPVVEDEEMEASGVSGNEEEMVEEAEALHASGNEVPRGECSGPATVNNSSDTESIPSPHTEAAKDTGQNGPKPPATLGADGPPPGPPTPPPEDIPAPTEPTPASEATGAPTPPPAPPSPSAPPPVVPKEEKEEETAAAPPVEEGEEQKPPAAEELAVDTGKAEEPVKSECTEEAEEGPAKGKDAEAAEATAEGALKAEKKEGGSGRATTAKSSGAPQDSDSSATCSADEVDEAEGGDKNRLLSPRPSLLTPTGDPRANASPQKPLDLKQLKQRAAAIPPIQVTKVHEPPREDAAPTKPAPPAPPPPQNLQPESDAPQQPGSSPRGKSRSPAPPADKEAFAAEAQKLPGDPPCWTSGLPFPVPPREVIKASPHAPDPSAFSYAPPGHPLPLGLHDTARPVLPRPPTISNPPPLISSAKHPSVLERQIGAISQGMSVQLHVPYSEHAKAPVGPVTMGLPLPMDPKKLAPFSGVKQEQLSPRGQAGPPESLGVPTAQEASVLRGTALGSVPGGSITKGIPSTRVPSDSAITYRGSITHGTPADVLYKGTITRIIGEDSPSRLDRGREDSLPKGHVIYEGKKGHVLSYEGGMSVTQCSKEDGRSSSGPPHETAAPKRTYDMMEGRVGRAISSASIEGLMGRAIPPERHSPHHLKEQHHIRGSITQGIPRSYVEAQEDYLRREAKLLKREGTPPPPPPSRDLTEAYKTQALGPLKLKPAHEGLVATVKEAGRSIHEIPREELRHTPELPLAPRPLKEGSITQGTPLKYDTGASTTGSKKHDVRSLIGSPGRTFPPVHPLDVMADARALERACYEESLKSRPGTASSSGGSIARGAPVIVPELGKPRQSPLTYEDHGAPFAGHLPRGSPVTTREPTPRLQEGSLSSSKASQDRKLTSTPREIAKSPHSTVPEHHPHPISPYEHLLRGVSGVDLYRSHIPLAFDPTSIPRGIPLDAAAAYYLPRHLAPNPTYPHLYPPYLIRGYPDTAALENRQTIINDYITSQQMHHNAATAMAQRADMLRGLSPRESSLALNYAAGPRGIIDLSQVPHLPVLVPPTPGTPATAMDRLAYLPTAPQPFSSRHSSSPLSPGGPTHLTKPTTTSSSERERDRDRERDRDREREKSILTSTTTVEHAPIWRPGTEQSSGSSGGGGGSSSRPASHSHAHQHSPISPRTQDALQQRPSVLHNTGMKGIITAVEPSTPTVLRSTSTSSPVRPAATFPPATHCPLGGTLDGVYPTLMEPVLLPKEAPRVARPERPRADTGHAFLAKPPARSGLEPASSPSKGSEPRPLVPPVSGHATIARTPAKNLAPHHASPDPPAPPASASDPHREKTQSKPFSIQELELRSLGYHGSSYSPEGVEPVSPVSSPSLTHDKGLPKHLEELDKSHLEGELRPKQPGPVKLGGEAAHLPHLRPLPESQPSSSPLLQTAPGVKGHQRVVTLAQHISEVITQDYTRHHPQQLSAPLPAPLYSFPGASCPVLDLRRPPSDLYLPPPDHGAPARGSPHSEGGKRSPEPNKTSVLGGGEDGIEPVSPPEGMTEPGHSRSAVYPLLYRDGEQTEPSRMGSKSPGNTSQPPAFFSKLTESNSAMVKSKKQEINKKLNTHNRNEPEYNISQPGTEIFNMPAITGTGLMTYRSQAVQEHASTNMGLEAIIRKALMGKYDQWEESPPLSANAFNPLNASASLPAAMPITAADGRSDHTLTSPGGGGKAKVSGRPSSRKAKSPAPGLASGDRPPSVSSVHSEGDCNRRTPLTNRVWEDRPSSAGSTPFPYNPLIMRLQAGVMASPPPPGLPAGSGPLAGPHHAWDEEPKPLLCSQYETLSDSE
Ion channel NompC, sequence (Q7T1G6 whole entry): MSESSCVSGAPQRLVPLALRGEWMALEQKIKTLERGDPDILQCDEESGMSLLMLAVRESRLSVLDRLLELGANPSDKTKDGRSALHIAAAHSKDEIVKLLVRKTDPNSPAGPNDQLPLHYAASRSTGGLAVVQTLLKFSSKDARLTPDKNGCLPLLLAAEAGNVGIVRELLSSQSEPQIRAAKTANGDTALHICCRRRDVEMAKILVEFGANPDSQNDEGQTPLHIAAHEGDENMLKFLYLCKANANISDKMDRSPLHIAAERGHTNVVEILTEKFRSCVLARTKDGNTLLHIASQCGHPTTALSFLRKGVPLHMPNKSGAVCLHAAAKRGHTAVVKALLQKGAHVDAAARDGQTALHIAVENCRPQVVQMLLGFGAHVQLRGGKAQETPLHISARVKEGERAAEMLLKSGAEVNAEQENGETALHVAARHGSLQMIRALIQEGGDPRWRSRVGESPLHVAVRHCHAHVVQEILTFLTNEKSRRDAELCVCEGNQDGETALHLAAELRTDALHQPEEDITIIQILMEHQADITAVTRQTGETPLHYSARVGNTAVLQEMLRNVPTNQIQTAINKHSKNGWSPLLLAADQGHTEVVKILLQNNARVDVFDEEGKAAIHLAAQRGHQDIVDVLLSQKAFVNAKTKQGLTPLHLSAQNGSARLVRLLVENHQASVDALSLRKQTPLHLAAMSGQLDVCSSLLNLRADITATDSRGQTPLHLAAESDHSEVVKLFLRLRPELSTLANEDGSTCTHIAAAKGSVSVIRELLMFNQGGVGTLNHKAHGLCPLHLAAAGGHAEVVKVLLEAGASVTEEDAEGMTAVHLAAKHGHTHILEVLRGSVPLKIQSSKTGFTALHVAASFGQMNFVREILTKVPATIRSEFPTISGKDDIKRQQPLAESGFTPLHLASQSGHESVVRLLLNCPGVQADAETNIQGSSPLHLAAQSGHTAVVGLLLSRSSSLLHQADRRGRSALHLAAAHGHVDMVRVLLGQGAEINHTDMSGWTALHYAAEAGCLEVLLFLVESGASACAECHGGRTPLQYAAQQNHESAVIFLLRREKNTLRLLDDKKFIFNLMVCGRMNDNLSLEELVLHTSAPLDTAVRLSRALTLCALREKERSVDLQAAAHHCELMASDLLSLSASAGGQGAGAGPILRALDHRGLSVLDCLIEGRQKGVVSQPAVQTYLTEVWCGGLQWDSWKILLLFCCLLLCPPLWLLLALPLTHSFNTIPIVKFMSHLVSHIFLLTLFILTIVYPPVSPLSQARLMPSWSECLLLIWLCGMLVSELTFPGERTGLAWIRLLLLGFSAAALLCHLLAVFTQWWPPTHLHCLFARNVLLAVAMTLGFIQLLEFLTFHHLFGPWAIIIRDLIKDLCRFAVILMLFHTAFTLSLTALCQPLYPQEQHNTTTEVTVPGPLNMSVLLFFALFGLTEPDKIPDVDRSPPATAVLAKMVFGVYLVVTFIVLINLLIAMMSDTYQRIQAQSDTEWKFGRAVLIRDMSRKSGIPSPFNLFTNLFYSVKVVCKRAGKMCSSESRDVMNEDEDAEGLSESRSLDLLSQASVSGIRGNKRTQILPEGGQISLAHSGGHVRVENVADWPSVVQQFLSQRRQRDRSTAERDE
Photoreceptor-specific nuclear receptor, sequence (Q9Y5X4 whole entry): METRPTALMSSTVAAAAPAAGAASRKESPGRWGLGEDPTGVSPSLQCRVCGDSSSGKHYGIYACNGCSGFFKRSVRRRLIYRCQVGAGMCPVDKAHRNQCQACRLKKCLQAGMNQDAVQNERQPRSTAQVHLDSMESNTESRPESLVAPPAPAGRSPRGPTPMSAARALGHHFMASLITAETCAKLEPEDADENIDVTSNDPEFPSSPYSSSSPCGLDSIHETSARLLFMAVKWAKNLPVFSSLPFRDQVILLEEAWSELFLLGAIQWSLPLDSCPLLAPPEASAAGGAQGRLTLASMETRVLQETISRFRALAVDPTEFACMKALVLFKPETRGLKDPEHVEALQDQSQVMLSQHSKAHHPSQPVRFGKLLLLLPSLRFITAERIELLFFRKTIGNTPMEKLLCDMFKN

CCCCN(C)C(=O)c1nc2ccccn2c1CN1CCN(C/C=C/c2ccccc2)CC1
IC50 [1]: > 43.8 µM (not active) | IC50 [2]: 16.6 µM (not active)

O=C(Nc1ccc2oc(-c3ccccc3F)nc2c1)c1ccc2c(c1)OCCO2
EC50 [3]: 31.1 µM (inactive)

CC(=O)Nc1ccc(NC(=O)C(C)OC(=O)/C(C#N)=C/c2ccc(N(C)C)cc2)cc1 (stereo not given)
IC50 [4]: > 39.8 µM (not active) | IC50 [5]: > 39.8 µM (not active) | EC50 [6]: 86.3 µM (inconclusive) | EC50 [7]: 26.9 µM (active)

Cc1ccc(N(C)S(=O)(=O)c2ccc(C)cc2)cc1
EC50 [8]: 5.1 µM (active) | EC50 [9]: > 29.9 µM (not active)

CCn1c(=O)cc(OCC(=O)N(C)C2CCCCC2)c2ccccc21
IC50 [10]: > 80 µM (inactive)

O=C(C1=C(O)C(=O)N(CCN2CCOCC2)C1c1cccs1)c1cc2ccccc2o1 (stereo not given)
IC50 [4]: 6.71 µM (active) | IC50 [5]: > 39.8 µM (not active)

O=C(Cc1ccc(Cl)c(Cl)c1)Nc1ccccc1N1CCOCC1
EC50 [8]: 2.89 µM (active) | EC50 [9]: 13.4 µM (not active)

CC(=O)OC1COC(OC2C(O)C(C)OC(OC3C(OC4CCC5(C)C(CCC6(C)C5CC=C5C7CC(C)(C)CCC7(C(=O)O)CCC56C)C4(C)CO)OCC(O)C3O)C2O)C(O)C1OC(C)=O (stereo not given)
IC50 [11]: > 35 µM (not active) | IC50 [12]: > 35 µM (not active) | AC50 [13]: 5.67 µM (active)

COC(=O)c1ccc(CSc2nc3ccccc3c(=O)n2-c2ccccc2)o1
IC50 [14]: 5.21 µM (active) | IC50 [15]: 13.6 µM (active) | EC50 [16]: > 53 µM (inactive) | IC50 [17]: 858 nM (active) | IC50 [18]: 3.14 µM (active)

O=C(c1ccco1)c1cn(Cc2ccc(Cl)cc2)c2ccccc12
IC50 [11]: 6.69 µM (active) | IC50 [12]: 9.22 µM (active)

Oc1cccc(-c2nc3ccc4ccccc4c3c3c2CCC3)c1
CC50 [19]: > 40 µM (active) | IC50 [14]: 7.68 µM (active) | EC50 [20]: 27.8 µM (active) | IC50 [18]: 5.22 µM (active) | EC50 [21]: 10 µM (active) | EC50 [22]: 53.6 µM (active)
